In US20230382925A1, “MODULATORS OF CYSTIC FIBROSIS TRANSMEMBRANE CONDUCTANCE REGULATOR” (VERTEX PHARMACEUTICALS INCORPORATED, priority 2020, published 2023):
Where two headings read alike, the source gives them in different places. Blank lines part the entries; values can stand above or below the compound they belong to.

Key:
[1] = amide bond, 13-membered ring, DMF
CFTR [2] = biological target: T1, CFTR (Homo sapiens, UniProt P13569); assay: Membrane Potential Dye, Enteroid Assay B; assay type: cell-based
T1 sequence (P13569 with tags, fused parts or gaps DEL508-508): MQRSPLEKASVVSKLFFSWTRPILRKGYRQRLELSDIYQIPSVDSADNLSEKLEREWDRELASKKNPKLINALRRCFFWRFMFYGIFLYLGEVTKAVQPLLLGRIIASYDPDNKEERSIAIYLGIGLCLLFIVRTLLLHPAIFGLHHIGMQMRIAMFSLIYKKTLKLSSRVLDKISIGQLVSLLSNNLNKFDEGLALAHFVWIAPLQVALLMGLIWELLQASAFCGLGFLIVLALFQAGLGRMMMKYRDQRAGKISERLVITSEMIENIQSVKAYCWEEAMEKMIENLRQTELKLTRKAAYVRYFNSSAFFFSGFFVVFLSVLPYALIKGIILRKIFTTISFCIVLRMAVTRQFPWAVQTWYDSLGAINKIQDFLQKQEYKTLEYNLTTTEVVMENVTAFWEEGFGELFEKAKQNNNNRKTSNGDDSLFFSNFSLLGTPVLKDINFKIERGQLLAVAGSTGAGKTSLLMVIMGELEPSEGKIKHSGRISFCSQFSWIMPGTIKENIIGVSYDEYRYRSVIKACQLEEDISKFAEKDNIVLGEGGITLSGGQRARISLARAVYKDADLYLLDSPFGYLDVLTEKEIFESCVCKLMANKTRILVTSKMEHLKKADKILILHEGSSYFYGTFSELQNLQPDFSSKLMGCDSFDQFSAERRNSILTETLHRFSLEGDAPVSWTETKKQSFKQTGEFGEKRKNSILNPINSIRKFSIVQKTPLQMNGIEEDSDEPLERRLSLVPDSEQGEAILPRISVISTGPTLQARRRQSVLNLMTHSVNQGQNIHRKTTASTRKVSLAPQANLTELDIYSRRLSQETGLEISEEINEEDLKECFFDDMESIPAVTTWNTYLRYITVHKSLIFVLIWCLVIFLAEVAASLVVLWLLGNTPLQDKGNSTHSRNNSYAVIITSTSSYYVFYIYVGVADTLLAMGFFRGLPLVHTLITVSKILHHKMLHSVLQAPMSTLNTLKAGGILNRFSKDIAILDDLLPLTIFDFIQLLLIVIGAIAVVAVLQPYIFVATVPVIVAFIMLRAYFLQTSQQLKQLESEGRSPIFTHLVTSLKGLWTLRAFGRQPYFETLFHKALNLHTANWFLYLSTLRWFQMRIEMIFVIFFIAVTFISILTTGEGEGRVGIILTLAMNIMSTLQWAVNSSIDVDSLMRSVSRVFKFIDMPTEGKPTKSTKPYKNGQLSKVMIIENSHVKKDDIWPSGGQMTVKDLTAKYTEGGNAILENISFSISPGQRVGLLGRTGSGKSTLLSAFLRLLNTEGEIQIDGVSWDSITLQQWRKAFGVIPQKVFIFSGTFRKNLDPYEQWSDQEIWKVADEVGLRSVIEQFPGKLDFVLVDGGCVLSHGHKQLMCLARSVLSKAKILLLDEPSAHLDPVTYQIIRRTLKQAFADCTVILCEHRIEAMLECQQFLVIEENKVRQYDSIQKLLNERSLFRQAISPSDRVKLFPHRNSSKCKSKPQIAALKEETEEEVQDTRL
Outline: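 Human intestinal enteroid cells exposed to compound 18-24 h at 37 °C, then loaded with methyl oxonol membrane-potential dye plus CaCC blockers. Chloride transport triggered in chloride-free buffer with 10 μM forskolin, 100 μM IBMX, 300 nM Compound III; fluorescence read 15 min, expressed as % of triple-corrector/potentiator combination control.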

CFTR [3] = biological target: T1, CFTR; assay: Membrane Potential Dye, Enteroid Assay A; assay type: cell-based
Outline: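 Primary human intestinal enteroid cells exposed to compound for 18–24 hours at 37 °C, then loaded 25 min with methyl oxonol membrane potential dye plus CaCC inhibitors. Chloride transport triggered in chloride-free buffer with 10 μM forskolin, 100 μM IBMX and 300 nM Compound III, fluorescence read 15 min; % Activity relative to a triple-combination corrector/potentiator control.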

[4] = Table 10, read-out: Ent. B EC50

- Ent. B Max Activity (%) (CFTR [2]; Table 10): +++ (+++ is >60%)
- EC50 (CFTR [2]; [4]): < 1000 nM
SMILES: Cc1cccc(C)c1-c1cc2nc(n1)NS(=O)(=O)c1cccc(c1)C(=O)N(C1Cc3ccccc3C1)[C@H](CC(C)(C)C)CO2 [Compound 183, (11R)-6-(2,6-Dimethylphenyl)-11-(2,2-dimethylpropyl)-12-indan-2-yl-2,2-dioxo-9-oxa-2λ^6-thia-3,5,12,19-tetrazatricyclo[12.3.1.14,8]nonadeca-1(18),4(19),5,7,14,16-hexaen-13-one]
- ring closure, yield after HPLC ([1]; from Cc1cccc(C)c1-c1cc(OC[C@@H](CC(C)(C)C)NC2Cc3ccccc3C2)nc(NS(=O)(=O)c2cccc(C(=O)O)c2)n1, CDMT/NMM, 25.7 mM, 24.0 h): 13%

- Ent. A Max Activity (%) (CFTR [3]): +++ (+++ is >60%)
- EC50 (CFTR [3]; read-out: Ent. A EC50): < 1000 nM
SMILES: Cc1cccc(C)c1-c1cc2nc(n1)NS(=O)(=O)c1cccc(c1)C(=O)N(C1CC(C)(C)C1)[C@H](CC(C)C)CO2 [Compound 28, (11R)-12-(3,3-Dimethylcyclobutyl)-6-(2,6-dimethylphenyl)-11-isobutyl-2,2-dioxo-9-oxa-2λ^6-thia-3,5,12,19-tetrazatricyclo[12.3.1.14,8]nonadeca-1(18),4(19),5,7,14,16-hexaen-13-one]
- ring closure, yield after HPLC ([1]; from Cc1cccc(C)c1-c1cc(OC[C@@H](CC(C)C)NC2CC(C)(C)C2)nc(NS(=O)(=O)c2cccc(C(=O)O)c2)n1, HATU/DIEA, 18.9 mM, 25.0 °C, 2.0 h): 60%

- Ent. B Max Activity (%) (CFTR [2]; Table 10): +++ (+++ is >60%)
- EC50 (CFTR [2]; [4]): < 1000 nM
SMILES: Cc1cccc(C)c1-c1cc2nc(n1)NS(=O)(=O)c1cccc(c1)C(=O)N(c1cnn(C)c1)[C@H](CCC(C)C)CO2 [Compound 7, (11R)-6-(2,6-Dimethylphenyl)-11-isopentyl-12-(1-methylpyrazol-4-yl)-2,2-dioxo-9-oxa-2λ^6-thia-3,5,12,19-tetrazatricyclo[12.3.1.14,8]nonadeca-1(18),4(19),5,7,14,16-hexaen-13-one]
- ring closure, yield after HPLC ([1]; from Cc1cccc(C)c1-c1cc(OC[C@@H](CCC(C)C)Nc2cnn(C)c2)nc(NS(=O)(=O)c2cccc(C(=O)O)c2)n1, CDMT/NMM, 48.0 h, 2 steps): 19%

- Ent. B Max Activity (%) (CFTR [2]): +++ (+++ is >60%)
- EC50 (CFTR [2]; read-out: Ent. B EC50): < 1000 nM
SMILES: Cc1cccc(C)c1-c1cc2cc(n1)NS(=O)(=O)c1cccc(n1)C(=O)N(C1CC3(CC3)C1)[C@H](CC(C)C)CO2 [Compound 197, (11R)-6-(2,6-Dimethylphenyl)-11-isobutyl-2,2-dioxo-12-spiro[2.3]hexan-5-yl-9-oxa-2λ^6-thia-3,5,12,18-tetrazatricyclo[12.3.1.14,8]nonadeca-1(18),4(19),5,7,14,16-hexaen-13-one]
- ring closure, yield after HPLC ([1]; from Cc1cccc(C)c1-c1cc(OC[C@@H](CC(C)C)NC2CC3(CC3)C2)cc(NS(=O)(=O)c2cccc(C(=O)O)n2)n1, HATU/DIEA, 27.1 mM, 2.0 h): 59%

- Ent. B Max Activity (%) (CFTR [2]): +++ (+++ is >60%)
- EC50 (CFTR [2]; read-out: Ent. B EC50): < 1000 nM
SMILES: Cc1cccc(C)c1-c1cc2nc(n1)NS(=O)(=O)c1cncc(n1)C(=O)N(C1CC3(CC3)C1)[C@H](CC(C)C)CO2 [Compound 62, (11R)-6-(2,6-Dimethylphenyl)-11-isobutyl-2,2-dioxo-12-spiro[2.3]hexan-5-yl-9-oxa-2λ^6-thia-3,5,12,16,18,19-hexazatricyclo[12.3.1.14,8]nonadeca-1(18),4(19),5,7,14,16-hexaen-13-one]
- ring closure, yield after HPLC ([1]; from Cc1cccc(C)c1-c1cc(OC[C@@H](CC(C)C)NC2CC3(CC3)C2)nc(NS(=O)(=O)c2cncc(C(=O)O)n2)n1, HATU/DIEA, 15.2 mM, 12.0 h): 65%

- Ent. B Max Activity (%) (CFTR [2]; Table 10): +++ (+++ is >60%)
- EC50 (CFTR [2]; [4]): < 1000 nM
SMILES: Cc1cccc(C)c1-c1cc2nc(n1)NS(=O)(=O)c1cccc(c1)C(=O)N(c1cnn(C(C)(C)C)c1)[C@H](CC(C)(C)C)CO2 [Compound 184, (11R)-12-(1-tert-Butylpyrazol-4-yl)-6-(2,6-dimethylphenyl)-11-(2,2-dimethylpropyl)-2,2-dioxo-9-oxa-2λ^6-thia-3,5,12,19-tetrazatricyclo[12.3.1.14,8]nonadeca-1(18),4(19),5,7,14,16-hexaen-13-one]
- ring closure, yield after HPLC ([1]; from Cc1cccc(C)c1-c1cc(OC[C@@H](CC(C)(C)C)Nc2cnn(C(C)(C)C)c2)nc(NS(=O)(=O)c2cccc(C(=O)O)c2)n1, CDMT/NMM, 24.9 mM, 48.0 h, 2 steps): 7%

- Ent. B Max Activity (%) (CFTR [2]): +++ (+++ is >60%)
- EC50 (CFTR [2]; read-out: Ent. B EC50): < 1000 nM
SMILES: Cc1cccc(C)c1-c1cc2nc(n1)NS(=O)(=O)c1cccc(c1)C(=O)N(C1CC3(CC3)C1)C[C@@H](C)O2 [Compound 180, (10R)-6-(2,6-Dimethylphenyl)-10-methyl-2,2-dioxo-12-spiro[2.3]hexan-5-yl-9-oxa-2λ^6-thia-3,5,12,19-tetrazatricyclo[12.3.1.14,8]nonadeca-1(18),4(19),5,7,14,16-hexaen-13-one]
- ring closure, yield after HPLC ([1]; from Cc1cccc(C)c1-c1cc(O[C@H](C)CNC2CC3(CC3)C2)nc(NS(=O)(=O)c2cccc(C(=O)O)c2)n1, HATU/DIEA, 7.3 mM, 1.0 h, 2 steps): 6%

- Ent. B Max Activity (%) (CFTR [2]; Table 10): +++ (+++ is >60%)
- EC50 (CFTR [2]; [4]): < 1000 nM
SMILES: COCCn1cc(N2C(=O)c3cccc(c3)S(=O)(=O)Nc3nc(cc(-c4c(C)cccc4C)n3)OC[C@H]2CCC(C)C)cn1 [Compound 6, (11R)-6-(2,6-Dimethylphenyl)-11-isopentyl-12-[1-(2-methoxyethyl)pyrazol-4-yl]-2,2-dioxo-9-oxa-2λ^6-thia-3,5,12,19-tetrazatricyclo[12.3.1.14,8]nonadeca-1(18),4(19),5,7,14,16-hexaen-13-one]
- ring closure, yield after HPLC ([1]; from COCCn1cc(N[C@H](CCC(C)C)COc2cc(-c3c(C)cccc3C)nc(NS(=O)(=O)c3cccc(C(=O)O)c3)n2)cn1, CDMT/NMM, 48.0 h, 2 steps): 16%

- Ent. B Max Activity (%) (CFTR [2]; Table 9): +++ (+++ is >60%)
- EC50 (CFTR [2]; Table 9, read-out: Ent. B EC50): < 1000 nM
SMILES: Cc1cccc(C)c1-c1cc2nc(n1)NS(=O)(=O)c1cc(n(C)n1)C(=O)N(C1CC3(CC3)C1)[C@H](CC(C)C)CO2 [Compound 74, (10R)-15-(2,6-Dimethylphenyl)-10-isobutyl-6-methyl-3,3-dioxo-9-spiro[2.3]hexan-5-yl-12-oxa-3λ^6-thia-2,5,6,9,16,17-hexazatricyclo[11.3.1.14,7]octadeca-1(17),4,7(18),13,15-pentaen-8-one]
- ring closure, yield after HPLC ([1]; from Cc1cccc(C)c1-c1cc(OC[C@@H](CC(C)C)NC2CC3(CC3)C2)nc(NS(=O)(=O)c2cc(C(=O)O)n(C)n2)n1, HATU/DIPEA, 4.9 mM, 6.0 h, 2 steps): 10%

- Ent. B Max Activity (%) (CFTR [2]; Table 10): +++ (+++ is >60%)
- EC50 (CFTR [2]; [4]): < 1000 nM
SMILES: COCCn1cc(N2C(=O)c3cccc(c3)S(=O)(=O)Nc3nc(cc(-c4c(C)cccc4C)n3)OC[C@H]2CC(C)C)cn1 [Compound 98, (11R)-6-(2,6-Dimethylphenyl)-11-isobutyl-12-[1-(2-methoxyethyl)pyrazol-4-yl]-2,2-dioxo-9-oxa-2λ^6-thia-3,5,12,19-tetrazatricyclo[12.3.1.14,8]nonadeca-1(18),4(19),5,7,14,16-hexaen-13-one]
- ring closure, yield after HPLC ([1]; from COCCn1cc(N[C@@H](COc2cc(-c3c(C)cccc3C)nc(NS(=O)(=O)c3cccc(C(=O)O)c3)n2)CC(C)C)cn1, CDMT/NMM, 48.0 h, 2 steps): 9%

- Ent. B Max Activity (%) (CFTR [2]; Table 9): +++ (+++ is >60%)
- EC50 (CFTR [2]; Table 9, read-out: Ent. B EC50): < 1000 nM
SMILES: Cc1cc(F)cc(C)c1-c1cc2nc(n1)NS(=O)(=O)c1cccc(c1)C(=O)N(C1CC3(CC3)C1)[C@H](CC(C)C)CO2 [Compound 10, (11R)-6-(4-Fluoro-2,6-dimethyl-phenyl)-11-isobutyl-2,2-dioxo-12-spiro[2.3]hexan-5-yl-9-oxa-2λ^6-thia-3,5,12,19-tetrazatricyclo[12.3.1.14,8]nonadeca-1(18),4(19),5,7,14,16-hexaen-13-one]
- ring closure, yield after HPLC ([1]; from Cc1cc(F)cc(C)c1-c1cc(OC[C@@H](CC(C)C)NC2CC3(CC3)C2)nc(NS(=O)(=O)c2cccc(C(=O)O)c2)n1, HATU/TEA, 53.7 mM, 25.0 °C, 4.0 h): 48%

SMILES: COC1C[C@@H]2CC(N3C(=O)c4cccc(c4)S(=O)(=O)Nc4nc(cc(-c5c(C)cccc5C)n4)OC[C@H]3CC(C)C)C[C@@H]2C1 (some centres unmarked)
- ring closure, yield after HPLC ([1]; from COC1C[C@H]2CC(N[C@@H](COc3cc(-c4c(C)cccc4C)nc(NS(=O)(=O)c4cccc(C(=O)O)c4)n3)CC(C)C)C[C@H]2C1, COMU/DIEA, 29.7 mM, 14.0 h): 30%

SMILES: Cc1cccc(C)c1-c1cc2nc(n1)NS(=O)(=O)c1cccc(c1)C(=O)N(C1CC(OC(C)C)C1)[C@H](CC1(C(F)(F)F)CC1)CO2 (some centres unmarked)
- ring closure, yield after HPLC ([1]; from Cc1cccc(C)c1-c1cc(OC[C@@H](CC2(C(F)(F)F)CC2)NC2CC(OC(C)C)C2)nc(NS(=O)(=O)c2cccc(C(=O)O)c2)n1, HATU/TEA, 44.0 mM, 16.0 h): 18%

- Ent. B Max Activity (%) (CFTR [2]; Table 9): +++ (+++ is >60%)
- EC50 (CFTR [2]; Table 9, read-out: Ent. B EC50): < 1000 nM
SMILES: Cc1cccc(C)c1-c1cc2nc(n1)NS(=O)(=O)c1cccc(c1)C(=O)N(C1CC(OC(C)C)C1)[C@H](CC(C)C)CO2 (stereo partly drawn) [Compound 47, (11R)-6-(2,6-Dimethylphenyl)-11-isobutyl-12-(3-isopropoxycyclobutyl)-2,2-dioxo-9-oxa-2λ^6-thia-3,5,12,19-tetrazatricyclo[12.3.1.14,8]nonadeca-1(18),4(19),5,7,14,16-hexaen-13-one]
- ring closure, yield after HPLC ([1]; from Cc1cccc(C)c1-c1cc(OC[C@@H](CC(C)C)NC2CC(OC(C)C)C2)nc(NS(=O)(=O)c2cccc(C(=O)O)c2)n1, HATU/Et3N, 59.2 mM, 2.0 h): 53%
